Legend:
[1] = Solubility in chloroform at 20° C., Formula 2 vs Formula 3; assay type: physicochemical; conditions: in 100 mL of chloroform at 20° C.
[2] = Intensity of white light, Experimental Example 2 (−25° F.); conditions: low temperature
Experimental: The oxalate solutions and the activator solutions prepared in Examples 1 and 2, and Comparative Examples 1 and 2 were mixed in a volume ratio of 3:1 to chemiluminescent compositions, respectively.
The procedure was repeated in the same manner as in Experimental Example 1, except that the temperature of the thermostat was set to −25° F.

Compound	Solubility, 1,6,7,12-tetrahaloperylenedicarboximide of Formula 3 (X is Cl) [1]	precipitation of the dye in the chemiluminescent composition [2]
CCCCCCCCCCCCN1C(=O)c2cc(Cl)c3c4c(Cl)cc5c6c(cc(Cl)c(c7c(Cl)cc(c2c37)C1=O)c64)C(=O)N(CCCCCCCCCCCC)C5=O [Dodecyl (Formula 3), N,N′-didodecyl-1,6,7,12-tetrachloroperylene-3,4,9,10-dicarboximide]	65 g	no precipitates were formed even at low temperature
CCCCCCN1C(=O)c2cc(Cl)c3c4c(Cl)cc5c6c(cc(Cl)c(c7c(Cl)cc(c2c37)C1=O)c64)C(=O)N(CCCCCC)C5=O [Hexyl (Formula 3), N,N′-dihexyl-1,6,7,12-tetrachloroperylene-3,4,9,10-dicarboximide]	72 g	

Reference: patent US7090790B2, “Chemiluminescent composition producing white light” (priority 2004, dated 2006)
